Experimental data published in patent US7223888B2, “Mu opioid receptor ligands: methods of use and synthesis” (President and Fellows of Harvard College, priority 2002, dated 2007).

Columns and labels:
[1] = target: T1, KOR (Cavia porcellus, UniProt P41144); test: Opioid receptor competitive binding assay, KOR (3H-U-69,593); parameters: species or system guinea pig; conditions: for Ki: Ki KOR, Table 10, 3H-U-69,593, guinea pig cerebellum preparation, errors two standard deviations; for Ki KOR/Ki MOR: Table 13, selectivity for MOR versus KOR
T1 construct: from tissue; host or cells: guinea pig cerebellum preparation
Description: (§1) For selected compounds, Ki for MOR, DOR, and KOR were determined according to the following procedure: Recombinant hMOR-1 membrane preps from stably transfected CHO cells and recombinant hDOR-1 membrane preps from stably transfected HEK-293 cells were purchased from Amersham Biosciences. Guinea pig cerebellum preparations were used for KOR assays.
(§2) Each microassay from an assay plate was filtered through an individual well of a Packard GF/B 96-well filter plate (glass fiber filter) to collect the membranes. Each well was washed twice with 200 μL of ice cold wash buffer (50 mM Tris, pH 7.4). The filter plate was allowed to dry overnight, the back was sealed, and Packard Bioscience Microscint PS scintillation fluid (75 μL) was added to each well, which was then counted for ^3H for 2 minutes using a Packard Bioscience TopCount scintillation counter plate reader.
(§3) Each compound was assayed at 8 concentrations, using half-log serial dilutions. Each concentration was tested in triplicate, and the ^3H cpm were averaged.
(§4) This triplicate experiment was repeated three times for the MOR and twice for the DOR and the KOR.

[2] = target: T2, hMOR-1 (Homo sapiens, UniProt P35372); test: Opioid receptor competitive binding assay, MOR (3H-DAMGO); conditions: Ki MOR, Table 4; 3H-DAMGO, hMOR-1 stably transfected into CHO cells; errors 95% confidence interval
T2 construct: purchased Amersham Biosciences; host or cells: stably transfected CHO cells (membrane preparation)
Description: as §1, §2, §3
(§5) This concentration was determined experimentally by scintillation counting an aliquot of the radioligand stock solution used in the assay.
(§6) Kd=the binding constant for the radioligand.
as §4

[3] = target: T2, hMOR-1; test: MOR GTP-γ-S assay (MOR activation); format: biochemical; conditions: Table 15; compound 10 mM (footnote); percentage of DAMGO induced GTP-g-35S specific binding; CHO membranes with hMOR-1
Description: MOR GTP-γ-S assay was run in the same 200 μL, 96 well format as the binding assay. Each microassay contained experimental compound, 0.04 nM GTP-γ-^35S, 9 μM GDP, and about 0.02 nM MOR (from stably transfected CHO cells), in assay buffer (50 mM Tris-HCl, 3 mM MgCl2, 0.2 mM EGTA, 100 mM NaCl, pH 7.4). The assays were incubated for two to three hours at room temperature, then filtered onto a filter plate. The plate was dried; scintillation fluid was added, and the wells were counted for ^35S. Blank assays were run to determine non-specific binding. […] The results were averaged; the non-specific counts were subtracted, and the resulting value was expressed as a percent of the value obtained for DAMGO. The error reported is two standard deviations from the mean of the quadruplicate experiment. The values were compared using one way Anova with Tukey's post-hoc analysis.

[4] = target: T3, hDOR-1 (Homo sapiens, UniProt P41143); test: Opioid receptor competitive binding assay, DOR; conditions: for Ki: Ki DOR, Table 7, 3H-diprenorphine, hDOR-1 stably transfected into HEK-293 cells, errors two standard deviations; for Ki DOR/Ki MOR: Table 13, selectivity for MOR versus DOR (footnote: 3H-DPDPE, hDOR-1)
T3 construct: purchased Amersham Biosciences; host or cells: stably transfected HEK-293 cells (membrane preparation)
Description: as §1, §2, §3, §5, §6, §4

## Cc1cc(O)cc(C)c1CC(N)C(O)C/C=C/C(O)C(Cc1ccccc1)C(=O)NC(Cc1ccccc1)C(N)=O (single isomer, unassigned) [(S,S,R,S)-25, 7-(1-Carbamoyl-2-phenyl-ethylcarbamoyl)-2,6-dihydroxy-1-(4-hydroxy-2,6-dimethyl-benzyl)-8-phenyl-oct-4-enyl-ammonium]
[1]
  Ki: 50 ± 16 nM
  Ki KOR/Ki MOR: 41
[2]
  Ki: 1.2 ± 0.4 nM
[3]
  % GTP-γ-35S bound: 32 ± 5%
[4]
  Ki: 230 ± 20 nM
  Ki DOR/Ki MOR: 190

## Cc1cc(O)cc(C)c1CC(N)C(O)C/C=C/C(O)C(Cc1ccccc1)C(=O)NCCc1ccccc1 (single isomer, unassigned) [(S,S,R,S)-26, 2,6-Dihydroxy-1-(4-hydroxy-2,6-dimethyl-benzyl)-7-phenethylcarbamoyl-8-phenyl-oct-4-enyl-ammonium]
[1]
  Ki: 60 ± 32 nM
  Ki KOR/Ki MOR: 94
[2]
  Ki: 0.64 ± 0.09 nM
[3]
  % GTP-γ-35S bound: 52 ± 6%
[4]
  Ki: 120 ± 30 nM
  Ki DOR/Ki MOR: 190

## Cc1cc(O)cc(C)c1CC(N)C(O)C/C=C/C(O)C(Cc1ccccc1)C(=O)NC(Cc1ccccc1)C(N)=O (single isomer, unassigned) [(S,S,S,R)-25, 7-(1-Carbamoyl-2-phenyl-ethylcarbamoyl)-2,6-dihydroxy-1-(4-hydroxy-2,6-dimethyl-benzyl)-8-phenyl-oct-4-enyl-ammonium]
[1]
  Ki: 22 ± 9 nM
  Ki KOR/Ki MOR: 130
[2]
  Ki: 0.17 ± 0.07 nM
[3]
  % GTP-γ-35S bound: 35 ± 5%
[4]
  Ki: 40 ± 1 nM
  Ki DOR/Ki MOR: 230

## Cc1cc(O)cc(C)c1CC(N)C(O)C/C=C/C(O)C(Cc1ccccc1)C(=O)NCCc1ccccc1 (single isomer, unassigned) [(S,S,S,R)-26, 2,6-Dihydroxy-1-(4-hydroxy-2,6-dimethyl-benzyl)-7-phenethylcarbamoyl-8-phenyl-oct-4-enyl-ammonium]
[1]
  Ki: 42 ± 29 nM
  Ki KOR/Ki MOR: 140
[2]
  Ki: 0.29 ± 0.06 nM
[3]
  % GTP-γ-35S bound: 40 ± 3%
[4]
  Ki: 99 ± 11 nM
  Ki DOR/Ki MOR: 340

## Cc1cc(O)cc(C)c1CC(N)C(O)C/C=C/C(O)C(Cc1ccccc1)C(=O)NC(CO)Cc1ccccc1 [(S,S,S,R)-27]
[1]
  Ki: 69 ± 14 nM
[2]
  Ki: 0.16 ± 0.06 nM
[3]
  % GTP-γ-35S bound: 44 ± 6%
[4]
  Ki: 54 ± 8 nM

## Cc1cc(O)cc(C)c1CC(N)C(O)C/C=C/C(O)C(Cc1ccccc1)C(=O)OC(CO)Cc1ccccc1 [(S,S,S,R)-30, 7-(1-Benzyl-2-hydroxy-ethoxycarbonyl)-2,6-dihydroxy-1-(4-hydroxy-2,6-dimethyl-benzyl)-8-phenyl-oct-4-enyl-ammonium]
[1]
  Ki: 85 ± 1 nM
  Ki KOR/Ki MOR: 190
[2]
  Ki: 0.44 ± 0.01 nM
[3]
  % GTP-γ-35S bound: 62 ± 4%
[4]
  Ki: 17 ± 6 nM
  Ki DOR/Ki MOR: 39
